# Patent US20210038668A1, “TRADITIONAL CHINESE MEDICINE COMPOSITION FOR PREVENTING AND/OR TREATING ISCHEMIC REPERFUSION INJURY” (TASLY PHARMACEUTICAL GROUP CO., LTD., priority 2018, published 2021)
# Experiments:
# Bcl-2 = experiment: Western blotting of Bcl-2, endothelial cells after hypoxia/reoxygenation; assay type: cell-based; settings: rat brain endothelial cells, hypoxia 4.5 h/reoxygenation 3 h; tPA 20 mcg/ml alone (model group); T541 400 mcg/ml + tPA 20 mcg/ml
# Text: Establishment of rat brain endothelial cell H/R model: rat brain endothelial cells were purchased from ATCC, and then subcultured to 5-6 generations in normal conditions for further experiment. […]
# [1] = system: brain surface postcapillary venule; experiment: Plasma albumin leakage of brain surface postcapillary venule; assay type: in vivo, C57BL/6 mice; settings: 24 h after administration; tPA 10 mg/kg alone; T541 20 mg/kg + tPA 10 mg/kg
# Method: Plasma albumin leakage: femoral venous cannula of mice was conducted under a stereoscopic microscope (PE/08, outer diameter: 0.36 mm and inner diameter: 0.20 mm). Mice were fixed on an observation board for brain microcirculation in prone position; parietal skin of mice was cut off to expose right parietal bone; the whole parietal bone was thinned by grinding by a hand-held cranial drill till there is only one layer of soft bone cortex under the stereoscopic microscope. FITC-labelled plasma albumin (excitation wavelength: 420-490 nm, emission wavelength: 520 nm) was slowly injected via femoral vein. 10 minutes later, fluorescence images of postcapillary venule, artery in the dominant region of middle cerebral artery and artery in the dominant region of anterior cerebral artery among […] (diameter) on the surface of the mice brain after reperfused for 24 hours by an upright fluorescent microscope linked to hypersensitive fluorescent CCD; then leakage of plasma albumin was analyzed. Fluorescence intensity inside (Iv) and outside (Ii) venule was calculated by an image analysis software ImageJ (Bethesda, Md., USA); the leakage of plasma albumin is denoted by Ii/Iv.
# [2] = system: ATP, ADP and AMP of cerebral cortex in ischemic penumbra; experiment: ELISA of ATP, ADP and AMP in brain tissue; assay type: in vivo, C57BL/6 mice; settings: brain tissue 24 hours after administration
# Text: To compare the therapeutical effect on reperfusion injury caused by tPA thrombolysis between the traditional Chinese medicinal composition of the present invention and each ingredient (total saponins of Astragalus, the experiment was divided into the following group (tPA is combined with T541, individual ingredient thereof and compatibility of any two ingredients) specifically as follows: tPA+total saponins of Astragalus (tPA+HQ), tPA+ salvianolic acids (tPA+DS), tPA+Panax notoginseng saponins (tPA+SQ), tPA+ total saponins of Astragalus+salvianolic acids (tPA+HQ+DS), tPA+ total saponins of Astragalus+Panax notoginseng saponins (tPA+HQ+SQ), tPA+ salvianolic acids+Panax notoginseng saponins (tPA+DS+SQ) and tPA+T541. Normal saline served as an isovolumetric control. The usage number in each group is 6.
# ELISA adsorption kit was used to measure the change on the content of MDA, 8-hydroxyl-2′-deoxyguanosine (8-OHdG), adenosine triphosphate (ATP), adenosine diphosphate (ADP) and adenosine monophosphate (AMP) in the penumbra field of brain tissue cortex of the mode, and the change on the activity of mitochondrial complexes I, II, IV and V. 6 samples were used to repeat the independent experiment for at least three times for each group of data.
# JAM-1 = experiment: Western blotting of JAM-1, cortex of ischemic penumbra; assay type: in vivo, C57BL/6 mice; settings: brain tissue 24 hours after administration, sham = 1.00; tPA 10 mg/kg alone; T541 20 mg/kg + tPA 10 mg/kg
# Method: After reperfused for 24 hours, mice were perfused by normal saline; Western blotting analysis was conducted to the penumbra field of infarcted right cerebral cortex. After perfused, mice brain tissue was taken out; cerebellum and prefrontal lobe were cut off; the brain tissue of right brain close to 1 cm of the central joint of left and right hemispheres along the sagittal view; infarcted penumbra field of the rest tissues was cut off along an 45° angle; the cerebral cortex of the penumbra field was peeled off and preserved at low temperature. Right cerebral cortex was taken and added 1×RIPA lysate and a Cocktail protease inhibitor (1:100, Cell Signaling Technology, US) for full pyrolysis and ultrasonic treatment, and then 17000 g were centrifuged for 30 minutes. Supernatant was taken and added 5×loading buffer by volume, boiled for 20 minutes in boiling water, and then preserved at −80° C. Excessive supernatant was taken out and quantified by a BCA protein quantification liquor (ThermoScientific, US) to measure absorbance value at 560 nm of ELIASA and to calculate the protein concentration according to a standard curve. […] The density of electrophoretic strips was analyzed by an image analysis software Quantityone. […]
# [3] = tPA 10 mg/kg alone or + T541 20 mg/kg or ingredients at Table 7 doses
substance,measurement,setting,value
tPA: tissue-type plasminogen activator (tPA) for thrombolysis,Bcl-2,Bcl-2,0.69 ± 0.12
same,Albumin exudation ratio of venule %,[1],125.10 ± 3.53 %
same,ADP,[2]; [3],2.51 ± 0.24
same,ADP/ATP,[2]; [3],2.45 ± 0.10
same,AMP,[2]; [3],2.66 ± 0.32
same,AMP/ATP,[2]; [3],2.68 ± 0.34
same,ATP,"[2]; tPA 10 mg/kg alone or + T541 20 mg/kg or ingredients at Table 7 doses (Astragalus saponins 10, Panax notoginseng saponins 2, salvianolic acids 8, in pairs 2 mg/kg)",1.05 ± 0.13
same,JAM-1/β-actin,JAM-1,0.52 ± 0.04
